Data reported in patent publication EP4417616A1, “LXR ANTAGONISTS” (Ospedale San Raffaele S.r.l., priority 2023, dated 2024).

Columns and labels:
[1] = system: MC-38-OVA-liver metastases; assay type: in vivo, mice; details: 1440 h
Experimental: (§1) . Forty-eight hours later the cells were differentiated and expanded by IL-7/IL15 (5ng/ml both cytokines) with or without PFM037. Ten, 12 and 15 days later, FACS analysis was performed to evaluate their differentiation status. […]. Then, mice bearing MC-38-OVA-liver metastases were treated with vehicle, or OT-I T cells expanded with IL-2 (effectors), or IL-7/IL15 with or without PFM037. Tumor-bearing mice injected with vehicle were all dead 40 days after tumor injection. Twenty percent of tumor-bearing mice treated with OT-I T cells expanded with IL-2 were alive at 60 days, whereas 50% and 80% of tumor-bearing mice treated with IL-7/IL15 with or without PFM037, respectively, were alive at 60 days (Fig. 20). […].

[2] = system: bone marrow-purified monocytes; assay: In vitro mono-DC differentiation of bone marrow-purified monocytes cultured with M-CSF; assay type: cell-based, mouse; details: wild type monocytes, 48 hours of culture
human T cells = assay: In vitro expansion of activated human T cells by IL-7/IL15; assay type: cell-based; details: human T cells expanded by IL-7/IL15 with PFM037 (5 and 10 µM)
OT-I T cells = assay: In vitro differentiation and expansion of activated OT-I T cells by IL-7/IL15; assay type: cell-based, mouse
Experimental: as §1

[3] = system: LXR target genes ABCA1, SREBP1c, FASN and SCD1; assay: Quantitative Real-Time-PCR of LXR target genes in PMA-differentiated U937 cells; assay type: cell-based, human; details: U937 differentiated with PMA 72 hours; PFM037 50, 25 and 10 µM, 16 hours
Experimental: Reporter assay for nuclear receptor transcriptional activity. Human embryonic Kidney 293 cells (American Type Culture Collection) were cultured in Dulbecco's Modified Eagle's medium containing 10% of fetal bovine serum at 37°C in humidified atmosphere of 5% CO2. HEK293 cells (4×10^4 cells per well) were transiently transfected in 48 well plate with the reporter plasmids pMH100X4-TK-luc (100 ng/300µl), Renilla (22 ng/300µl) together with 100 ng/300µl of pCMX-Gal4-LXRα or pCMX-Gal4-LXRβ plasmids using X-tremeGENE 9 DNA Transfection Reagent (Roche). Six hours after transfection, the cells were treated with the appropriate compound for 24 hours. Luciferase activities were analyzed by luciferase Dual Reporter Assay Systems (Promega) according to the manufacturer's protocol. GAL4-LXRs, and TK-MHC100-luc plasmids were described in^7. For mammalian two-hybrid assays the human liver cell line Hhu7 (American Type Culture Collection) was transiently transfected with the reporter plasmids p5xUAS-tk-Luc (100 ng/300µl) together with pGAL4-RAP250-Del4 (133 ng/300µl), described in^39, and either of pVP16-LXRα-LBD or pVP16-LXRβ-LBD plasmids (133 ng/300µl), described in^40, using the jetPrime transfection reagent (Polyplus). Six hours after transfection, the cells were treated with the appropriate compound for 40 hours. Luciferase activity was analyzed as described above and protein content spectrophotometrically using Coomassie Plus Protein assay reagent (Thermo Scientific). Quantitative Real-Time-PCR. U937 cell line was differentiated in foam macrophages with phorbol 12-myristate 13-acetate (PMA) 10 ng/ml (Sigma) for 72 hours at 37°C in RPMI 10% FBS. At day 3 T0901317 (10 µM) or different amount of PFM037 (50, 25 and 10 µM) were added for 16 hours. Total RNA was purified by TRIZOL (Invitrogen). Reverse transcription was performed by MLV-reverse transcriptase (Promega). QPCR was performed using SYBR Green Master Mix (Applied Biosystems) and real-time PCR (Viia 7 Real Time PCR System, Applied Biosystems). PCR reactions were done in triplicate. The comparative Ct method was used to quantify transcripts that were normalized for human GAPDH. The following primer pairs were used: • GAPDH-F 5'-ACATCATCCCTGCCTCTACTG-3' (SEQ ID No. 1); • GAPDH-R 5'-ACCACCTGGTGCTCAGTGTA-3'(SEQ ID No. 2); • ABCA1-F 5'-CCA GGC CAG TAC GGA ATT C-3' (SEQ ID No. 3); • ABCA1-R 5'-CCT CGC CAA ACC AGT AGG A-3' (SEQ ID No. 4); • SREBP-1c-F 5'-GGC GGG CGC AGA TC-3' (SEQ ID No. 5); • SREBP-1c-R 5'-TTGTTGATAAGCTGAAGCATGTCT-3' (SEQ ID No. 6); • FAS F 5'-ACA GCG GGG AAT GGG TAC T-3'(SEQ ID No. 7); • FAS R 5'-GACTGGTACAACGAGCGGAT-3' (SEQ ID No. 8); • SCD1-F 5'-TTCAGAAACACATGCTGATCCTCATAATTC-3' (SEQ ID No. 9); • SCD1-R 5'-ATTAAGCACCACAGCATATCGCAAGAAAGT-3'(SEQ ID No. 10)

IL-1β release = assay: IL-1β release; details: at early times after PFM037 treatment
LLC tumors = assay: NMR lipidomic profiling of LLC tumors; details: PFM037-treated vs vehicle-treated LLC tumors
Experimental: Extraction of the lipidic and polar fractions from tumor tissues. […] They were resuspended in 170 µL of H2O and 700 µL of methanol and sonicated for 60 sec. Then, 350 µL of chloroform were added and mixed the samples on an orbital shaker in ice for 10 minutes. After that, 350 µL of H2O/chloroform (1:1, v/v) were added to each suspension and centrifuged at 4000 rpm for 10 minutes at 4°C. Thereafter, the aqueous (polar) and lipidic (non-polar) phases were collected separately, transferred to a glass vial and evaporated.
^1H NMR spectra acquisition and data analysis. All the lipidic and polar samples were analyzed using Nuclear Magnetic Resonance (NMR). The lipidic fractions were dissolved in 700 µL of deuterated chloroform (CDCl3) and 0.03 volume percentage of tetramethylsilane (TMS) and inserted in NMR tubes whereas the polar fractions were dissolved in 630 µL of PBS-D2O with the pH adjusted to 7.20, and 70 µL of trimethylsilylpropanoic acid (TSP) (1% in D2O). TMS and TSP were used as the internal standards. […] All ^1H NMR spectra were manually phased and baseline-corrected and referenced to the CH3 resonance of TSP or TMS at 0 ppm. The spectral 0.50-8.60 ppm region of ^1H-NMR spectra was integrated in buckets of 0.04 ppm by AMIX package (Bruker, Biospin, Germany). […]

RMA lymphoma = assay: Treatment of RMA tumor-bearing mice; details: 300 µg i.v. 5 days/week
Experimental: Analysis of tumor infiltrating cells by flow cytometry. […] Tumors collected 7, 10, 12 or 14 days after injection were cut into small fragments and digested with Liberase TL (66 µg/ml, Roche) and DNAse I (150 µg/ml, Roche) for 25-30 minutes at 37 °C. Digested tissues were filtered by using a 75 µm diameter cell strainer. Single cell suspensions were stained with Live/Dead Violet kit reagents (Molecular Probes) for 30 minutes at 4°C. After washing, the cells were incubated for 5-10 minutes at RT with Fc-blocking solution (Anti-CD16/32, 10 µg/ml mouse Fc Block, BD) and then stained with various antibodies incubated at 4°C for 20 minutes. […] CD209a (5H10), CCR7 (4b12) and F4/80 (BM8) were from eBioscience. Rat IgG, Rat IgG2a, Rat IgG2b, Rat IgM and Hamster isotype control mAbs were used as controls (Biolegends and BD Biosciences). For intracellular staining, cells were incubated with PMA (100 ng/ml) and ionomycin (500 ng/ml) in the presence of 10 µg/ml of Brefeldin for 4 hours. Cells were then fixed using the IC Fixation buffer (eBioscience), permeabilized with 1x Permeabilization buffer (eBiosciences) and stained with anti-IFNy mAb. Samples were run by FACSCanto flow cytometer and analyzed by FlowJo software gating on live cells. FACS sorting was performed by using the FACSAria Fusion (BD)
Tumor challenge experiments. C57BL/6 mice were injected subcutaneously with LLC-Mock (1 ×10^6), LLC-SULT2B1b (1 ×10^6), RMA (2 ×10^5), or B16F1-OVA (2 ×10^5) tumor cells. […] Tumor size was evaluated by measuring perpendicular diameters by a caliper every 2-3 days. Data are reported as the average tumor volume ± SD. In selected experiments tumors were injected in Ccr2^-/-mice.
Treatment of tumor-bearing mice with LXR antagonists alone or with immunotherapy. Tumor-bearing mice were treated with 25-HC-3S or PFM037 6-7 days after tumor challenge. After 6-7 days, mice were randomly assigned to either treatment or vehicle groups. Mice were injected with 300 µg of either compound given i.v. for 5 days/week. […] B16F1-OVA-bearing mice were treated with 400 µg of PFM037 for 5 days/week. For controls of mAb experiments, mice were injected with 250 µg of rat IgG2a isotype control antibody. […] Tumors were collected and measured 14 days after tumor challenge.

[4] = Blood plasma chemistry analysis (plasma lipids); assay type: in vivo; details: tumor-bearing mice; PFM037 (0.4 µg/day); Fig. 5N
Experimental: Blood Plasma Chemistry Analysis. For all in vivo experiments mouse blood samples were collected via cardiac puncture and isolated plasma was analyzed by the COBAS c311 system (Roche) for plasma lipids.

[5] = system: Lewis Lung Carcinoma (LLC); assay: Treatment of LLC tumor-bearing mice; assay type: in vivo
From the text: (§2) Tumor challenge experiments.

melanoma B16F1-OVA = assay: Treatment of B16F1-OVA-bearing mice; assay type: in vivo
From the text: as §2

LLC tumor cells = assay: In vitro growth of LLC tumor cells; assay type: cell-based, mouse; details: compared with vehicle
[6] = OT-I T cells expanded by IL-7/IL15 with PFM037, FACS at 10, 12 and 15 days
[7] = LLC-bearing mice, 300 µg i.v. 5 days/week from day 6-7, vs vehicle

CC(C)CC[C@H](O)[C@@H](C)[C@H]1CC[C@H]2[C@@H]3CC=C4C[C@@H](OS(=O)(=O)[O-])CC[C@]4(C)[C@H]3CC[C@]12C.[Na+] [PFM037, 22(S)-Hydroxycholesterol-3-sulfate sodium salt]
tumor-bearing mice alive at 60 days [1]: 50%
CD11c marker expression [2]: expressed CD11c marker
markers associated to memory/stem cell memory T cells (human T cells): higher levels
CD39 and CD69 markers (OT-I T cells; [6]): progressively lost
CD62L and CD44low markers (OT-I T cells; [6]): progressively acquiring
stemness markers Sca1, Tcf1 and CXCR3 (OT-I T cells; T cells expanded by IL7 and IL15 in the presence of PFM037): higher levels
ABCA1 transcripts [3]: no activation
FASN mRNA expression [3]: inhibition
SCD1 mRNA expression [3]: inhibition
SREBP-1c mRNA expression [3]: inhibition
IL-1β release (IL-1β release): no difference
proton signals of ω-3 fatty acid docosahexaenoic acid and its derivatives (LLC tumors): lower levels
proton signals of ω-6 fatty acid arachidonic acid and its derivatives (LLC tumors): enriched
numbers of tumor-infiltrating mono-DCs (RMA lymphoma): Higher
tumor growth (RMA lymphoma; tumor weight at sacrifice): tumor growth control
plasma HDL [4]: reduced levels
plasma LDL [4]: did not change
plasma not esterified fatty acids [4]: reduced levels
plasma total cholesterol [4]: reduced levels
plasma triglycerides [4]: reduced levels
absolute numbers of tumor-infiltrating mono-DCs [5, 7]: Higher
tumor growth [5, 7]: delay of tumor growth
tumor growth ([5]; established LLC tumors, 300 µg/mouse every other day, Fig. 24B): able to control LLC tumor growth
LLC growth in wild type BM-chimera mice ([5]; wild type BM-chimera mice, compared to vehicle, Fig. 7C): better control of LLC growth
antitumor activity, 400 µg compared with 300 µg (melanoma B16F1-OVA): much stronger
tumor growth (melanoma B16F1-OVA; 400 µg 5 days/week): delayed the growth
in vitro growth of LLC tumor cells (LLC tumor cells): grew in a similar manner
